“Also recorded” adds a separate entry of the source. Like-named read-outs stand apart in the source and are kept apart here.
Assays:
[1] = test system: HSV-1; experiment: Anti-HSV-1 replication assay in Vero cells, titers by plaque assay; format: cell-based, herpes simplex virus 1; settings: for log reduction at 5 µM: read-out: HSV-1 Log suppression 5 μM; for log reduction at 50 µM: read-out: HSV-1 Log suppression 50 μM
Method: Vero cells were maintained in Dulbecco's modified Eagle's medium (DMEM) containing 3% newborn calf serum, 3% bovine growth serum, 2 mM L-glutamine and 100 IU/mL penicillin and 0.1 mg/mL streptomycin (P/S). HSV-1 #6 and HSV-2 #1 are de-identified clinical isolates from the Saint Louis University Hospital. Stocks were prepared after a single passage in cell culture and were titered by standard plaque assay (Knipe and Spang, 1982). Wild-type HSV-2 used in FIG. 3 was laboratory strain 333. […] Virus stocks were grown and titered on Vero cells (Morrison and Knipe, 1996).
(§1) Compounds to be screened were diluted in PBS supplemented to contain 2% newborn calf serum and 1% glutamine, and added in 100 μL volume to confluent cell monolayers in 24-well cluster plates. Immediately thereafter HSV-1 and HSV-2, diluted in the supplemented PBS medium, were added to the wells in 50 μl volume such that the final concentration of compound was 50 μM and 5 μM and the multiplicity of infection was 0.1. The plates were incubated at 37° C. for 1 hour and then virus-containing inoculum was removed and the wells were washed once in PBS. Compounds, diluted to 50 μM and 5 μM in DMEM supplemented to contain 2% newborn calf serum and 1% each penicillin/streptomycin, were added at 0.5 mL/well. Plates were incubated at 37° C. an additional 23 hr, and then the plates were visually inspected through a phase contrast microscope for cytopathic effect, and for toxic effect. […] The entire contents of each well were collected by scraping. Samples were frozen at −80° C., and then subsequently thawed, sonicated, and infectious virus titer was determined by standard plaque assay on Vero cell monolayers. Because the compounds were dissolved at 10 mM in 100% DMSO, equivalent dilutions of DMSO were added to additional wells as a control for effects of the diluent. Each experiment was repeated once. EC50 values were determined as above except that serial dilutions of the compound to be tested were prepared starting at 50 μM. The inhibitory values were calculated by non-linear curve-fitting in GraphPad Prism.

[2] = test system: HSV-2; experiment: Anti-HSV-2 replication assay in Vero cells, titers by plaque assay; format: cell-based, herpes simplex virus 2; settings: for log reduction at 5 µM / log reduction at 50 µM: Human alphaherpesvirus 2, Vero, 24 h; for log reduction at 5 µM: read-out: HSV-2 Log suppression 5 μM; for log reduction at 50 µM: read-out: HSV-2 Log suppression 50 μM
[3] = Quantitative Vero cell toxicity (MTT); format: cell-based; settings: African green monkey, Vero cells
Method: (§2) Qualitative assessments of cytotoxicity were done visually by inspecting the cells in the primary screening assays. For the quantitative assays, cells were plated in 96-well plates at 1.0×10^4 per well. The next day the compounds were added at 0.78 to 100 μM in a final concentration of 1% (v/v) DMSO, and the cells were incubated for 24 hours under conditions identical to those employed for the viral replication inhibition assays. Mitochondrial toxicity was measured by incubating the cells with 0.25 mg/mL thiazolyl blue tetrazolium bromide (MTT, Sigma Aldrich Chemical Co.), the cultures were incubated for 60 min, metabolites were solubilized in acidic isopropanol, and absorbance was read at 570 nm. CC50 values were calculated by non-linear curve fitting using GraphPad Prism.
Quantitative toxicity measurements were conducted for all compounds that suppressed HSV replication by >2 log10 at 5 μM plus a number of compounds with lesser inhibitory activity for comparison. Toxicity was assessed by […]. Cells were plated in 96-well plates at 1.0×10^4 per well. The next day compound was added in concentrations ranging from 0.78 to 100 μM in a final concentration of 1% (v/v) DMSO. The cells were incubated for 24 h under conditions identical to those employed for the viral replication inhibition assays, and then mitochondrial activity was measured with the MTT assay (Sigma Aldrich) according to the manufacturer's instructions. Percent viability was determined for each compound concentration from the […], and then 50% cytotoxic concentrations (CC50) values were calculated by non-linear curve fitting using GraphPad Prism. Consistent with the subjective assessments of toxicity, all compounds selected for quantitative toxicity assessment had CC50 values≥50 μM under these conditions (Table 1).

[4] = test system: HBV; experiment: HBV replication assay in HepDES19 cells; format: cell-based; settings: Hepatitis B virus
Method: HBV replication assay. Inhibition of HBV replication was measured in HepDES19 cells as previously described (Cai, et al., 2014). Cells were seeded into 6-well plates and incubated in DMEM/F12, 10% fetal bovine serum (FBS), 1% penicillin/streptomycin (P/S) with 1 μg/ml tetracycline. Tetracycline was withdrawn after 24 hours. The test compound was applied to duplicate wells 48 hours later in medium containing a final DMSO concentration of 1%, and medium containing the compound was refreshed daily for the following two days. Cells were harvested and non-encapsidated nucleic acids were digested with micrococcal nuclease (New England Biolabs). HBV DNA was purified from capsids using QIAamp Cador Pathogen Mini Kit (Qiagen) with proteinase K incubation overnight at 37° C. TaqMan PCR was performed for 40 cycles at an annealing temperature of 60° C. Primers and probe (IDT Inc.) for the plus-polarity strand were: 5′[…]3′ (SEQ ID NO: 1); 5′[…]3′ (SEQ ID NO: 2); 5′/56-FAM/[…]/ZEN/[…]/3IABkFQ (SEQ ID NO: 3). Primers and probe for the minus-polarity strand were: 5′[…]3′ (SEQ ID NO: 4); 5′[…]3′ (SEQ ID NO: 5); 5′/56-FAM/[…]/ZEN/[…]/3IABkFQ (SEQ ID NO: 6).

[5] = Mouse liver microsome assay; format: in vitro ADME; settings: 1 μM in mouse liver microsomes; for half-life at 1 μM: read-out: t ½; for ER: extraction ratio
Method: Microsomal incubations are run at a final P450 concentration of 0.25 μM. The microsomal mixture is composed of 0.1M potassium phosphate containing 3.3 mM MgCl and 1 μM compound (final concentration). The mixture is prewarmed for 5 min at 37° C. To initiate the reaction a 12 mM stock of NAPDH (1.2 mM, final concentration) is added to the warmed microsomal mixture and aliquots are removed at 0, 5, 10, 20 and 30 min. Samples are quenched with ice cold acetonitrile containing internal standard and either 1.8 mM EDTA or EGTA (final concentration). Samples are vortexed and spun down at 3200 rpm for 5 min. The supernant is transferred to 96-deep well plates and run on LC/MS/MS.

[6] = test system: HSV; experiment: Anti-HSV SAR summary, HSV type not separated; format: cell-based, herpes simplex virus; settings: grouped by activity at 50, 5 and 0.5 μM
Method: as §1
A series of over 20 synthetic αHTs were synthesized and tested to both confirm the initial SAR, and to provide leads for further optimization pursuits (FIG. 5). […] Specifically, biphenyl-containing molecules #118 and 115 inhibit HSV replication by up to 4 log10 at 200 nM. The increased potency over close analogs #111 and 113 confirmed the importance of added lipophilicity.

[7] = Cytotoxicity reported with the HBV assay (Table 4); format: cell-based; settings: human, hepatoma cells; read-out: CC50 (HBV assay table)
Method: as §2

[8] = test system: HSV-2; settings: 5 μM or less; cited from earlier work
[9] = test system: HSV-1; settings: 5 μM or less; cited from earlier work
[10] = Human alphaherpesvirus 1, Vero, 24 h
[11] = HepDES19 cells, read-out: EC50 (HBV assay)

| Compound | log reduction at 5 µM [1, 10] | log reduction at 50 µM [1, 10] | log reduction at 5 µM [2] | log reduction at 50 µM [2] | CC50 at 24 h [3] [µM] | EC50 [4, 11] [µM] | Non-P450 turn-over [5] | half-life at 1 μM [5] [min] | ER [5] | anti-HSV SAR group, in words [6] | CC50 at 24 h [7] [µM] | EC50 ([4]; HepDES19, read-out: EC50 (HBV assay)) [µM] | HSV-1 inhibition, fold ([1]; 5 μM) | EC50 ([1]; Human alphaherpesvirus 1, Vero, 24 h, read-out: HSV-1 EC50) [nM] | HSV-2 inhibition, fold ([2]; 5 μM) | suppression of HSV-2 replication in cell culture, in words [8] | suppression of HSV-1 replication in cell culture, in words [9] |
| --- | --- | --- | --- | --- | --- | --- | --- | --- | --- | --- | --- | --- | --- | --- | --- | --- | --- |
| Cc1cc(O)c(=O)c(O)cc1-c1ccccc1 [Compound 113] | 2.27 | 5.38 | 2.07 | 5.61 | > 100 | 4.2 | – | – | – | – | – | – | – | – | – | – | – |
| Cc1cc(O)c(=O)c(O)cc1-c1ccc(C(F)(F)F)cc1 [Compound 145] | 3.96 | 3.97 | 4.05 | 4.33 | > 100 | – | – | – | – | – | – | – | – | – | – | – | – |
| Cc1cc(O)c(=O)c(O)cc1-c1ccc2ccccc2c1 [Compound 147] | 5.92 | 5.81 | 4.33 | 4.12 | 74.8 | – | No | > 120 | <0.1 | – | – | – | – | – | – | – | – |
| O=c1c(O)ccccc1O [Compound 172] | 3.31 | 4.11 | 1.8 | 4.64 | > 100 | – | – | – | – | moderate inhibitors | > 100 | 2.1 | – | – | – | – | – |
| Cc1cc(O)c(=O)c(O)cc1-c1ccc(Br)cc1 [Compound 114] | 4.8 | 4.75 | 3.92 | 5.26 | > 100 | – | – | – | – | – | – | – | – | – | – | – | – |
| Cc1cc(O)c(=O)c(O)cc1-c1cccc2ccccc12 [Compound 146] | 5.68 | 6.2 | 5.66 | 5.29 | > 100 | 2.3 | No | > 120 | <0.1 | highly inhibitory at much lower concentrations; also recorded: fully inhibitory at 0.5 μM | 12 | – | 478,600 fold | 450 | 457,100 fold | – | – |
| Cc1cc(O)c(=O)c(O)cc1C(=O)CC1CCCCC1 [Compound 173] | 5.91 | 5.8 | 5.32 | 5.94 | > 100 | 6.7 | – | – | – | fully inhibitory at 5 μM | 22 | – | – | – | – | – | – |
| Cc1cc(O)c(=O)c(O)cc1-c1cccc(Br)c1 [Compound 119] | 5.19 | 5.28 | 5.02 | 4.88 | 72.4 | 6.4 | – | – | – | – | 81 | – | – | – | – | – | – |
| Cc1cc(O)c(=O)c(O)cc1C(=O)C(C)C [Compound 143] | 0.25 | 5.93 | 0 | 4.78 | – | 6 | – | – | – | weakest inhibitors | > 100 | – | – | – | – | strongly suppress | strongly suppress |
| Cc1cc(O)c(=O)c(O)cc1C(=O)C1CCCCC1 [Compound 120] | 4.84 | 5.53 | 5.41 | 5.07 | ~50 | – | – | – | – | fully inhibitory at 5 μM | 24 | – | – | – | – | strongly suppress | strongly suppress |
| Cc1cc(O)c(=O)c(O)cc1C(=O)c1ccccc1 [Compound 111] | 4.28 | – | 3.21 | – | > 50 | – | – | – | – | fully inhibitory at 5 μM | 31 | – | – | – | – | strongly suppress | strongly suppress |
